According to patent US20250236639A1, “NEUROACTIVE STEROIDS AND COMPOSITIONS THEREOF” (Sage Therapeutics, Inc., priority 2019, published 2025):

Target: GABAA receptor
Assay: Steroid inhibition of [35S]-TBPS binding, rat brain cortical membranes
Conditions: 3 nM [35S]-TBPS, in the presence of 5 mM GABA
Experimental: [^35S]-t-Butylbicyclophosphorothionate (TBPS) binding assays using rat brain cortical membranes in the presence of 5 mM GABA has been described (Gee et al, J. Pharmacol. Exp. Ther. 1987, 241, 346-353; Hawkinson et al, Mol. Pharmacol. 1994, 46, 977-985; Lewin, A. H et al., Mol. Pharmacol. 1989, 35, 189-194).
Briefly, cortices are rapidly removed following decapitation of carbon dioxide-anesthetized Sprague-Dawley rats (200-250 g). The cortices are homogenized in 10 volumes of ice-cold 0.32 M sucrose using a glass/teflon homogenizer and centrifuged at 1500×g for 10 min at 4° C. The resultant supernatants are centrifuged at 10,000×g for 20 min at 4° C. to obtain the P2 pellets. The P2 pellets are resuspended in 200 mM NaCl/50 mM Na—K phosphate pH 7.4 buffer and centrifuged at 10,000×g for 10 min at 4° C. This washing procedure is repeated twice and the pellets are resuspended in 10 volumes of buffer. Aliquots ([…]) of the membrane suspensions are incubated with 3 nM [^35S]-TBPS and […] aliquots of test drug dissolved in dimethyl sulfoxide (DMSO) (final 0.5%) in the presence of 5 mM GABA. The incubation is brought to a final volume of 1.0 mL with buffer. Nonspecific binding is determined in the presence of […] and ranged from 15 to 25%. Following a 90 min incubation at room temp, the assays are terminated by filtration through glass fiber filters (Schleicher and Schuell No. 32) using a cell harvester (Brandel) and rinsed three times with ice-cold buffer. Filter bound radioactivity is measured by liquid scintillation spectrometry. Non-linear curve fitting of the overall data for each drug averaged for each concentration is done using Prism (GraphPad). […] The concentration of test compound producing 50% inhibition (IC50) of specific binding and the maximal extent of inhibition (Imax) are determined for the individual experiments with the same model used for the overall data and then the means±SEM.s of the individual experiments are calculated.
Various compounds are or can be screened to determine their potential as modulators of [^35S]-TBPS binding in vitro. These assays are or can be performed in accordance with the above

SMILES	IC50
CCC[C@@]1(O)CC[C@H]2[C@H](CC[C@@H]3[C@@H]2CC[C@@]2(C)[C@H]3CC[C@@H]2[C@](C)(Cn2cc(C#N)cn2)OC)C1 [Compound 37, 1-((R)-2-((3R,5R,8R,9R,10S,13S,14S,17S)-3-hydroxy-13-methyl-3-propylhexadecahydro-1H-cyclopenta[a]phenanthren-17-yl)-2-methoxypropyl)-1H-pyrazole-4-carbonitrile]	100 to 1000 nM
COC[C@@]1(O)CC[C@H]2[C@H](CC[C@@H]3[C@@H]2CC[C@]2(C)[C@@H](C(C)(Cn4cc(C#N)cn4)OC)CC[C@@H]32)C1 (stereo in doubt) [Compound 33, 1-[(2S)-2-[(1S,3aS,3bR,5aR,7R,9aS,9bR,11aS)-7-hydroxy-7-(methoxymethyl)-11a-methyl-hexadecahydro-1H-cyclopenta[a]phenanthren-1-yl]-2-methoxypropyl]-1H-pyrazole-4-carbonitrile]	100 to 1000 nM
C[C@@]1(O)CC[C@H]2[C@H](CC[C@@H]3[C@@H]2CC[C@@]2(C)[C@H]3CC[C@@H]2[C@@](C)(O)Cn2cc(C#N)cn2)C1 [Compound 1, 1-((R)-2-hydroxy-2-((3R,5R,8R,9R,10S,13S,14S,17S)-3-hydroxy-3,13-dimethylhexadecahydro-1H-cyclopenta[a]phenanthren-17-yl)propyl)-1H-pyrazole-4-carbonitrile]	< 100 nM
CCC[C@@]1(O)CC[C@@]2(C)[C@H](CC[C@@H]3[C@@H]2CC[C@@]2(C)[C@H]3CC[C@@H]2[C@@](C)(O)Cn2cc(C#N)cn2)C1 [Compound 27, 1-((R)-2-hydroxy-2-((3R,5R,8R,9S,10S,13S,14S,17S)-3-hydroxy-10,13-dimethyl-3-propylhexadecahydro-1H-cyclopenta[a]phenanthren-17-yl)propyl)-1H-pyrazole-4-carbonitrile]	100 to 1000 nM
COC[C@@]1(O)CC[C@H]2[C@H](CC[C@@H]3[C@@H]2CC[C@@]2(C)[C@H]3CC[C@@H]2[C@@](C)(O)Cn2cc(C#N)cn2)C1 [Compound 30, 1-((R)-2-hydroxy-2-((3R,5R,8R,9R,10S,13S,14S,17S)-3-hydroxy-3-(methoxymethyl)-13-methylhexadecahydro-1H-cyclopenta[a]phenanthren-17-yl)propyl)-1H-pyrazole-4-carbonitrile]	100 to 1000 nM
COC[C@@]1(O)CC[C@H]2[C@H](CC[C@@H]3[C@@H]2CC[C@]2(C)[C@@H](C(C)(C)Cn4cc(C#N)cn4)CC[C@@H]32)C1 [Compound 56, 1-(2-((3R,5R,8R,9R,10S,13S,14S,17S)-3-hydroxy-3-(methoxymethyl)-13-methylhexadecahydro-1H-cyclopenta[a]phenanthren-17-yl)-2-methylpropyl)-1H-pyrazole-4-carbonitrile]	< 100 nM
CCC[C@@]1(O)CC[C@H]2[C@H](CC[C@@H]3[C@@H]2CC[C@@]2(C)[C@H]3CC[C@@H]2[C@@](C)(O)Cn2cc(C#N)cn2)C1 [Compound 8, 1-((R)-2-hydroxy-2-((3R,5R,8R,9R,10S,13S,14S,17S)-3-hydroxy-13-methyl-3-propylhexadecahydro-1H-cyclopenta[a]phenanthren-17-yl)propyl)-1H-pyrazole-4-carbonitrile]	100 to 1000 nM
CCC[C@@]1(O)CC[C@@]2(C)[C@H](CC[C@@H]3[C@@H]2CC[C@@]2(C)[C@H]3CC[C@@H]2[C@](C)(O)Cn2cc(C#N)cn2)C1 [Compound 26, 1-((S)-2-hydroxy-2-((3R,5R,8R,9S,10S,13S,14S,17S)-3-hydroxy-10,13-dimethyl-3-propylhexadecahydro-1H-cyclopenta[a]phenanthren-17-yl)propyl)-1H-pyrazole-4-carbonitrile]	< 100 nM
COC[C@@]1(O)CC[C@H]2[C@@H](CC[C@@H]3[C@@H]2CC[C@@]2(C)[C@H]3CC[C@@H]2[C@@](C)(O)Cn2cc(C#N)cn2)C1 [Compound 20, 1-((R)-2-hydroxy-2-((3R,5S,8R,9R,10S,13S,14S,17S)-3-hydroxy-3-(methoxymethyl)-13-methylhexadecahydro-1H-cyclopenta[a]phenanthren-17-yl)propyl)-1H-pyrazole-4-carbonitrile]	100 to 1000 nM
CCC[C@@]1(O)CC[C@@]2(CC)[C@H](CC[C@H]3[C@@H]4CC[C@H]([C@](C)(O)Cn5cc(C#N)cn5)[C@@]4(C)CC[C@@H]32)C1 [Compound 44, 1-((S)-2-((3R,5R,8S,9S,10S,13S,14S,17S)-10-ethyl-3-hydroxy-13-methyl-3-propylhexadecahydro-1H-cyclopenta[a]phenanthren-17-yl)-2-hydroxypropyl)-1H-pyrazole-4-carbonitrile]	< 100 nM
COC[C@@]1(O)CC[C@H]2[C@@H](CC[C@@H]3[C@@H]2CC[C@@]2(C)[C@H]3CC[C@@H]2[C@](C)(O)Cn2cc(C#N)cn2)C1 [Compound 19, 1-((S)-2-hydroxy-2-((3R,5S,8R,9R,10S,13S,14S,17S)-3-hydroxy-3-(methoxymethyl)-13-methylhexadecahydro-1H-cyclopenta[a]phenanthren-17-yl)propyl)-1H-pyrazole-4-carbonitrile]	< 100 nM
C[C@@]1(O)CC[C@H]2[C@H](CC[C@@H]3[C@@H]2CC[C@]2(C)[C@@H](C(F)(F)Cn4cc(C#N)cn4)CC[C@@H]32)C1 [Compound 21, 1-(2,2-difluoro-2-((3R,5R,8R,9R,10S,13S,14S,17S)-3-hydroxy-3,13-dimethylhexadecahydro-1H-cyclopenta[a]phenanthren-17-yl)ethyl)-1H-pyrazole-4-carbonitrile]	< 100 nM
COC[C@H]1C[C@H]2[C@H](CC[C@@H]3[C@@H]2CC[C@@]2(C)[C@H]3CC[C@@H]2[C@](C)(O)Cn2cc(C#N)cn2)C[C@]1(C)O [Compound 58, 1-((S)-2-hydroxy-2-((2R,3S,5R,8R,9R,10S,13S,14S,17S)-3-hydroxy-2-(methoxymethyl)-3,13-dimethylhexadecahydro-1H-cyclopenta[a]phenanthren-17-yl)propyl)-1H-pyrazole-4-carbonitrile]	< 100 nM
CCC[C@@]1(O)CC[C@@]2(CC)[C@H](CC[C@H]3[C@@H]4CC[C@H]([C@@](C)(O)Cn5cc(C#N)cn5)[C@@]4(C)CC[C@@H]32)C1 [Compound 45, 1-((R)-2-((3R,5R,8S,9S,10S,13S,14S,17S)-10-ethyl-3-hydroxy-13-methyl-3-propylhexadecahydro-1H-cyclopenta[a]phenanthren-17-yl)-2-hydroxypropyl)-1H-pyrazole-4-carbonitrile]	100 to 1000 nM
CC[C@@]1(O)CC[C@H]2[C@H](CC[C@@H]3[C@@H]2CC[C@@]2(C)[C@H]3CC[C@@H]2[C@](C)(O)Cn2cc(C#N)cn2)C1 [Compound 11, 1-((S)-2-((3R,5R,8R,9R,10S,13S,14S,17S)-3-ethyl-3-hydroxy-13-methylhexadecahydro-1H-cyclopenta[a]phenanthren-17-yl)-2-hydroxypropyl)-1H-pyrazole-4-carbonitrile]	< 100 nM
C[C@@]1(O)CC[C@H]2[C@H](CC[C@@H]3[C@@H]2CC[C@]2(C)[C@@H](C4(Cn5cc(C#N)cn5)CC4)CC[C@@H]32)C1 [Compound 39, 1-((1-((3R,5R,8R,9R,10S,13S,14S,17S)-3-hydroxy-3,13-dimethylhexadecahydro-1H-cyclopenta[a]phenanthren-17-yl)cyclopropyl)methyl)-1H-pyrazole-4-carbonitrile]	< 100 nM
CC(C)(Cn1cc(C#N)cn1)[C@H]1CC[C@H]2[C@@H]3CC[C@@H]4C[C@](C)(O)CC[C@@H]4[C@H]3CC[C@]12C [Compound 41, 1-(2-((3R,5R,8R,9R,10S,13S,14S,17S)-3-hydroxy-3,13-dimethylhexadecahydro-1H-cyclopenta[a]phenanthren-17-yl)-2-methylpropyl)-1H-pyrazole-4-carbonitrile]	< 100 nM
CCC[C@@]1(O)CC[C@H]2[C@@H](CC[C@@H]3[C@@H]2CC[C@@]2(C)[C@H]3CC[C@@H]2[C@@](C)(O)Cn2cc(C#N)cn2)C1 [Compound 10, 1-((R)-2-hydroxy-2-((3R,5S,8R,9R,10S,13S,14S,17S)-3-hydroxy-13-methyl-3-propylhexadecahydro-1H-cyclopenta[a]phenanthren-17-yl)propyl)-1H-pyrazole-4-carbonitrile]	≥ 1000 nM
